The source of these data is patent US5225528A, “Cyclic hexapeptide oxytocin antagonists” (priority 1990, dated 1993).

Counter-ions that a name gives are not always drawn. Like-named read-outs stand apart in the source and are kept apart here. Square brackets hold non-standard residues; d marks the D form. Peptide text beside a SMILES is read from it. * marks the point of attachment. dPip(4-aza,4-Cbz) = O=C(O)[C@H]1CN(C(=O)OCc2ccccc2)CCN1; dPhe(4-NH2) = Nc1ccc(C[C@@H](N)C(=O)O)cc1; dPiz(1,6-dehydro) = O=C(O)[C@H]1CCC=NN1; NMeI = CC[C@H](C)[C@H](NC)C(=O)O; Pip(4-aza) = O=C(O)[C@@H]1CNCCN1; dNMeF = CN[C@H](Cc1ccccc1)C(=O)O; hPhe = N[C@@H](CCc1ccccc1)C(=O)O; Pip = O=C(O)[C@@H]1CCCCN1; dPip = O=C(O)[C@H]1CCCCN1; Orn = NCCC[C@H](N)C(=O)O; dNMeA = CN[C@H](C)C(=O)O; Me2Gly = CN(C)CC(=O)* Bounds are passed on as bounds.

What is called IC50 is the midpoint of a concentration-inhibition curve.

In one test the target is T1, uterine OT receptors (Rattus norvegicus, UniProt P70536).
T1 construct: from tissue; host or cells: uterus of DES-treated rats, crude membranes
T1 sequence (P70536 1-388): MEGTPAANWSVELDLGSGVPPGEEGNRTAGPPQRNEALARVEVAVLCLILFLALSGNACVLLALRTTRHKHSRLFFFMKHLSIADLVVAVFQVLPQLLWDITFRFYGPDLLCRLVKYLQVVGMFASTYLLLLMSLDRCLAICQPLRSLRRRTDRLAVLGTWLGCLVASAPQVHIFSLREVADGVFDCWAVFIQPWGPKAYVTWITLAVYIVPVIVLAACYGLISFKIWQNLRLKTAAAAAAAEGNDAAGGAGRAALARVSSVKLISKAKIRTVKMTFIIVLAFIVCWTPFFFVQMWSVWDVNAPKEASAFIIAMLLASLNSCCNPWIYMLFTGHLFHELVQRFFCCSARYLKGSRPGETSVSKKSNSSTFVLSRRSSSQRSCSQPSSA
In words: [^3 H]OT binding to uterine OT receptors, crude membrane preparation of uteri from DES-treated rats. How it is done: Competition studies were conducted at equilibrium (60 minutes; 22° C.) using 1 nM [^3 H]OT in the following assay buffer: 50 mM Tris-HCl, 5 mM MgCl2, and 0.1% BSA, pH 7.4.

The next test has as its target T2, AVP-V1 sites (Rattus norvegicus, UniProt P30560).
T2 construct: crude membrane preparation of male rat liver (AVP-V1 sites); from tissue; host or cells: male rat liver, crude membranes
In words: [^3 H]AVP binding to crude membrane preparation of male rat liver (AVP-V1 sites). The procedure: (§1) Nonspecific binding (5-10% of the total binding) was determined using 10 μM unlabeled AVP, and the binding reaction was terminated by filtration as described above for the [^3 H]OT binding assay.

The target in another test is T3, AVP-V2 sites (Rattus norvegicus, UniProt Q00788).
T3 construct: male rat liver (AVP-V1 sites) or kidney medulla (AVP-V2 sites); from tissue; host or cells: male rat kidney medulla, crude membranes
T3 sequence (Q00788 whole entry): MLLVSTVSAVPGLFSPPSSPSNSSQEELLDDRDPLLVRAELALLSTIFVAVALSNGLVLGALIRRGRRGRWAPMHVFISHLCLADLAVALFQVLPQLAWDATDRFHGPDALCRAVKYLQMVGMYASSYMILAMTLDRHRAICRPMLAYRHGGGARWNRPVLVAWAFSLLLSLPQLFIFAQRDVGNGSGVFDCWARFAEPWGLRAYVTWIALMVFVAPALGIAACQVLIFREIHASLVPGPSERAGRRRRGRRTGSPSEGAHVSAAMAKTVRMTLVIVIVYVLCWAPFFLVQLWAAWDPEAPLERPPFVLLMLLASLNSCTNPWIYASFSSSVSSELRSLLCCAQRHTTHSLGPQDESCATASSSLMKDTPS
In words: [^3 H]AVP binding to crude membrane preparation of male rat kidney medulla (AVP-V2 sites). The procedure:
as §1

[1] abbreviates: rat uterus membranes, 1 nM [^3 H]OT, read-out: Receptor Binding Results IC50 (nM) [^3 H]OT.
Where [2] appears, read: Receptor Binding Results IC50 (nM) [^3 H]-AVP-V1.
Setting [3] is: rat kidney medulla membranes, 2 nM [^3 H]AVP, read-out: Receptor Binding Results IC50 (nM) [^3 H]-AVP-V2.
Setting [4] is: read-out: Receptor Binding Results IC50 (nM) [^3 H]-AVP-V1.
Setting [5] is: Receptor Binding Results IC50 (nM) [^3 H]-AVP-V2.
The mark [6] stands for this setting: Receptor Binding Results IC50 (nM) [^3 H]OT.
[7] abbreviates: read-out: Receptor Binding Results IC50 (nM) [^3 H]-AVP-V2.

T2 sequence (P30560 whole entry): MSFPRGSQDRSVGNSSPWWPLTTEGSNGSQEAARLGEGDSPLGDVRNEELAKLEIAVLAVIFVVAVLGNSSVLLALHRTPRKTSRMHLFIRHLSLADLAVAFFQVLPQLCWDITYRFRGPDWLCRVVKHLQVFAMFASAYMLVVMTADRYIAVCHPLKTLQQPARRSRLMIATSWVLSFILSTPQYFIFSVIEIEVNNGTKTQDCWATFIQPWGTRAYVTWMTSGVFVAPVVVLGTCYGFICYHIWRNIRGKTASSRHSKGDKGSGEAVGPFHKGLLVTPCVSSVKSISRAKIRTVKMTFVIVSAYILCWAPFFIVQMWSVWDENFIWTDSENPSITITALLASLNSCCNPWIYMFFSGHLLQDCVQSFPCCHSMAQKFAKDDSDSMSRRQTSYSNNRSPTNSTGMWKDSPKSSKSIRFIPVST

With `CC[C@H](C)[C@@H]1NC(=O)[C@@H](Cc2ccccc2)NC(=O)[C@@H]2CCCN2C(=O)[C@@H](Cc2ccccc2)N(C)C(=O)[C@@H]2CCCCN2C(=O)[C@@H](C)N(C)C1=O` [Example 8, Cyclo[D-Phenylalanyl-L-isoleucyl-D-(N^α methyl)alanyl-L-pipecolyl-D-(N^α methyl)phenylanyl-L-prolyl]] (cyclo(I[dNMeA][Pip][dNMeF]P[dF])), the IC50 is 850 nM at uterine OT receptors (setting [1]), greater than 10000 nM on AVP-V1 sites (setting [2]) and greater than 10000 nM on AVP-V2 sites (setting [3]).
As for `CC[C@H](C)[C@@H]1NC(=O)[C@@H](Cc2ccccc2)NC(=O)[C@@H]2CCCN2C(=O)[C@@H](Cc2ccc(NC(=O)CN(C)C)cc2)NC(=O)[C@@H]2CCCCN2C(=O)[C@H]2CCCCN2C1=O` [Example 49, Cyclo[D-phenylalanyl-L-isoleucyl-D-pipecolyl-L-pipecolyl-D-([N,N-dimethylglycyl]p-amino)phenylalanyl-L-prolyl]] (cyclo(I[dPip][Pip][dPhe(4-NH2)](Me2Gly)P[dF])), the values for the IC50 on uterine OT receptors (setting [1]), on AVP-V1 sites (setting [2]) and on AVP-V2 sites (setting [3]) were 320 nM, 10000 nM and 10000 nM, respectively.
As for `CC[C@H](C)[C@@H]1NC(=O)[C@@H](Cc2c[nH]c3ccccc23)NC(=O)[C@@H]2CCCN2C(=O)[C@@H](Cc2c[nH]c3ccccc23)NC(=O)[C@@H]2CNCCN2C(=O)[C@H]2CCCCN2C1=O` [Example 88, c-[D-Trytophanyl-L-isoleucinyl-D-pipecolyl-L-piperazin-2-yl-D-tryptophanyl-L-prolyl]] (cyclo(I[dPip][Pip(4-aza)][dW]P[dW])), the IC50 was determined as 18 nM on uterine OT receptors (setting [1]), 5780 nM on AVP-V1 sites (setting [4]) and 1000 nM at AVP-V2 sites (setting [5]).
As for `CC[C@H](C)[C@@H]1NC(=O)[C@@H](Cc2ccccc2)NC(=O)[C@@H]2CCCN2C(=O)[C@@H](Cc2ccccc2)N(C)C(=O)[C@@H]2CCCN2C(=O)[C@H]2CCCCN2C1=O` [Example 7, Cyclo[D-phenylalanyl-L-isolelucyl-D-pipecolyl-L-propyl-D-(N^α Methyl)phenyl-L-prolyl]] (cyclo(I[dPip]P[dNMeF]P[dF])), the IC50 on uterine OT receptors (setting [6]) is 350 nM; at AVP-V1 sites (setting [2]), greater than 10000 nM; at AVP-V2 sites (setting [3]) it was greater than 10000 nM.
Consider `CC[C@H](C)[C@@H]1NC(=O)[C@@H](Cc2ccccc2)NC(=O)[C@@H]2CCCN2C(=O)[C@@H](Cc2ccccc2)N(C)C(=O)[C@H]2CN(C(=O)OCc3ccccc3)CCN2C(=O)[C@H]2CN(C(=O)OCc3ccccc3)CCN2C1=O` [Example 85, c-[Phenylalanyl-L-isoleucinyl-D-piperazin-2-yl(4-Cbz)-D-piperazin-2-yl(4-Cbz)-D-(N^α -methyl)phenylalanyl-L-prolyl]] (cyclo([dF]I[dPip(4-aza,4-Cbz)][dPip(4-aza,4-Cbz)][dNMeF]P)), for which the IC50 is 1000 nM at uterine OT receptors (setting [1]), greater than 10000 nM at AVP-V1 sites (setting [2]) and 10000 nM at AVP-V2 sites (setting [3]).
In the case of `CC[C@H](C)[C@@H]1NC(=O)[C@@H](Cc2ccccc2)NC(=O)[C@@H]2CCCN2C(=O)[C@@H](Cc2c[nH]c3ccccc23)NC(=O)[C@@H]2CCCCN2C(=O)[C@H]2CCCCN2C1=O` [Example 25, Cyclo[D-phenylalanyl-L-isoleucyl-D-pipecolyl-L-pipecolyl-D-trytophanyl-L-prolyl]] (cyclo(I[dPip][Pip][dW]P[dF])), the results for the IC50 at uterine OT receptors (setting [1]), on AVP-V1 sites (setting [4]) and on AVP-V2 sites (setting [7]) were 120 nM, 3000 nM and 3900 nM, respectively.
In the case of `CN1C(=O)[C@@H]2CCCCN2C(=O)[C@H]2CCCCN2C(=O)[C@H](Cc2ccccc2)NC(=O)[C@@H](Cc2c[nH]c3ccccc23)NC(=O)[C@@H]2CCCN2C(=O)[C@H]1Cc1ccccc1` [Example 31, Cyclo[D-Tryptophanyl-L-phenylalanyl-D-pipecolyl-L-pipecolyl-D-(N^α -methyl)phenylalanyl-L-prolyl]] (cyclo(F[dPip][Pip][dNMeF]P[dW])), the IC50 on uterine OT receptors (setting [1]) was 100 nM; on AVP-V1 sites (setting [2]) it was greater than 10000 nM; at AVP-V2 sites (setting [5]), greater than 1000 nM.
`CN1C(=O)[C@@H]2CCCCN2C(=O)[C@H]2CCCCN2C(=O)[C@H](CCc2ccccc2)NC(=O)[C@@H](Cc2c[nH]c3ccccc23)NC(=O)[C@@H]2CCCN2C(=O)[C@H]1Cc1ccccc1` [Example 32, Cyclo[D-trytophanyl-L-homophenylalanyl-D-pipecolyl-L-pipecolyl-D-(N^α methyl)phenylalanyl-L-prolyl]] (cyclo(P[dW][hPhe][dPip][Pip][dNMeF])): the figures for the half-inhibitory concentration (IC50) at uterine OT receptors (setting [1]), at AVP-V1 sites (setting [2]) and at AVP-V2 sites (setting [3]) were greater than 1000 nM, greater than 10000 nM and greater than 10000 nM, respectively.
As to `CC[C@H](C)[C@@H]1NC(=O)[C@@H](Cc2c[nH]c3ccccc23)NC(=O)[C@@H]2CCCN2C(=O)[C@@H](Cc2ccccc2)N(C)C(=O)[C@H](CCCN)NC(=O)[C@H]2CCC=NN2C1=O` [Example 127, c-[D-Tryptophanyl-L-isoleucyl-D-Δ-piperazyl-L-ornithyl-N-methyl-D-phenylalanyl L-prolyl]] (cyclo(I[dPiz(1,6-dehydro)][Orn][dNMeF]P[dW])), the IC50 on uterine OT receptors (setting [6]) was 22 nM; on AVP-V1 sites (setting [4]), 1600 nM; at AVP-V2 sites (setting [3]), 330 nM.
Turning to `CC[C@H](C)[C@H]1C(=O)N2CCCC[C@@H]2C(=O)N2CCCC[C@H]2C(=O)N(C)[C@H](Cc2ccccc2)C(=O)N2CCC[C@H]2C(=O)N(C)[C@H](C)C(=O)N1C` [Example 16, C-[D-(N^α methyl)alanyl-L-(N^α methyl)isoleucyl-D-pipecolyl-L-pipecolyl-D-(N^α methyl)phenylalanyl-L-prolyl]] (cyclo([NMeI][dPip][Pip][dNMeF]P[dNMeA])), the IC50 at uterine OT receptors (setting [1]) is 650 nM; on AVP-V1 sites (setting [2]) it was greater than 10000 nM; at AVP-V2 sites (setting [3]) it was greater than 10000 nM.
Turning to `CCOc1ccc(C[C@H]2NC(=O)[C@@H]3CCCN3C(=O)[C@@H](Cc3ccccc3)N(C)C(=O)[C@@H]3CCCCN3C(=O)[C@H]3CCCCN3C(=O)[C@H]([C@@H](C)CC)NC2=O)cc1` [Example 122, c-[(O-Ethyl)-D-tyrosyl-L-isoleucyl-D-pipecolyl-L-pipecolyl-N-methyl-D-phenylalanyl-L-prolyl]] (cyclo(I[dPip][Pip][dNMeF]P[dY](Et))), the IC50 was 130 nM on uterine OT receptors (setting [1]), greater than 10000 nM at AVP-V1 sites (setting [2]) and 695 nM at AVP-V2 sites (setting [7]).
Turning to `CC[C@H](C)[C@@H]1NC(=O)[C@@H](Cc2cn(CC(=O)OC(C)(C)C)c3ccccc23)NC(=O)[C@@H]2CCCN2C(=O)[C@@H](Cc2ccccc2)N(C)C(=O)[C@@H]2CN(CC(=O)OC(C)(C)C)CCN2C(=O)[C@H]2CCCCN2C1=O` [Example 182, c-[D-Tryptophanyl(t-butylacetyl)-L-isoleucinyl-D-pipecolyl-L-piperazin-2-yl(4-t-butylacetyl)-D-(N^α -Me)phenylalanyl-L-prolyl]], the inhibition at 1 µM on uterine OT receptors (1 h, @ 1,000 (nM), read-out: [^3 H]OT: percent inhibition of radioligand at the given concentration) came to 56%. Moreover, the IC50 at AVP-V1 sites (setting [2]) and at AVP-V2 sites (setting [3]) was greater than 10000 nM in each case.
As for `CC[C@H](C)[C@@H]1NC(=O)[C@@H](Cc2ccccc2)NC(=O)[C@@H]2CCCN2C(=O)[C@@H](Cc2ccccc2)N(C)C(=O)[C@H](CCCNC(=N)N)NC(=O)[C@H]2CCC=NN2C1=O` [Example 131, c-[D-phenylalanyl-L-isoleucyl-D-Δ-piperazyl-L-arginyl-D-(Nα-methyl)-phenylalanyl-L-prolyl]trifluoroacetate salt] (cyclo(I[dPiz(1,6-dehydro)]R[dNMeF]P[dF])), the IC50 amounted to 7.2 nM at uterine OT receptors (setting [1]), 400 nM on AVP-V1 sites (setting [4]) and 500 nM at AVP-V2 sites (setting [7]).
